In ChEMBL document CHEMBL4038295, “Calofolic acids A-F, chromanones from the bark of Calophyllum scriblitifolium with vasorelaxation activity” (Bioorg Med Chem Lett, 2017) one finds IC50 and inhibition data, which are given here for six compounds.

pIC50: −log10 of the molar value.

For the experiment, the system named is Thoracic aorta. The experiment can be described thus: Vasorelaxing effect in endothelium-intact Wistar rat thoracic aorta ring assessed as inhibition of phenylephrine-stimulated contraction. In kind it is functional, tissue-based.
With `CCCC[C@H](CC(=O)O)c1c2c(c(O)c3c1O[C@H](C)[C@H](C)C3=O)C=CC(C)(C)O2`, the pIC50 is 4.92 and the inhibition entry is “Dose-dependent effect”.

With `C[C@H](CC(=O)O)c1c2c(c(O)c3c1O[C@H](C)[C@H](C)C3=O)C=CC(C)(C)O2`, the pIC50 was 4.99 and the inhibition result is “Dose-dependent effect”.

Consider `CCC[C@H](CC(=O)O)c1c2c(c(O)c3c1O[C@H](C)[C@@H](C)C3=O)C=CC(C)(C)O2`, for which the pIC50 is 4.86 and the inhibition entry is “Dose-dependent effect”.

On to `CC[C@H](CC(=O)O)c1c2c(c(O)c3c1O[C@H](C)[C@H](C)C3=O)C=CC(C)(C)O2`, for which the negative logarithm of the IC50 (pIC50) is 5.22 and the inhibition entry was “Dose-dependent effect”.

For the compound `CCC[C@H](CC(=O)O)c1c2c(c(O)c3c1O[C@H](C)[C@H](C)C3=O)C=CC(C)(C)O2`, the pIC50 was 4.72 and the inhibition entry was “Dose-dependent effect”.

In the case of `CC[C@H](CC(=O)O)c1c2c(c(O)c3c1O[C@H](C)[C@@H](C)C3=O)C=CC(C)(C)O2`, the pIC50 is 4.98 and the inhibition entry was “Dose-dependent effect”.
